Results as given in the supplement of paper PMC3974653.
Structures can show the parent of a compound that is named as a salt.

System: MTT (mouse pheochromocytoma)
Test: IC50 of cell viability (ATP content)
Settings: (24 or 48 h)
Outline: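 Library compounds were tested at 8 final concentrations (0.5 nM to 46 µM) on MTT mouse pheochromocytoma cells for 24 or 48 hrs, with readout by CellTiter-Glo ATP luminescence. Signals were normalised with positive-control wells at 100% and DMSO wells at 0%. IC50 values were obtained by a four-parameter logistic fit.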

IC50 of cell viability | Compound
> 46 µM | CC12CC3CC(C)(C1)CC(N)(C3)C2 [MEMANTINE]
> 46 µM | C\C1=C\C(=O)C2=C(C=CC=C2)C1=O [MENADIONE]
> 46 µM | CC1CCC(C(C)C)C(O)C1 (stereo unspecified) [MENTHOL]
> 46 µM | CC1CCC(C(C)C)C(=O)C1 (stereo unspecified) [MENTHONE]
> 46 µM | CC1CCC(C(C)C)C(OC(=O)c2ccccc2O)C1 (stereo unspecified) [MENTHYL SALICYLATE]
> 46 µM | Cc1ccccc1OCC(O)CO (stereo unspecified) [MEPHENESIN]
> 46 µM | CC[C@@]1(c2ccccc2)NC(=O)N(C)C1=O [MEPHENYTOIN]
> 46 µM | Cc1cccc(C)c1NC(=O)C1CCCCN1C.Cl (stereo unspecified) [MEPIVACAINE HYDROCHLORIDE]
> 46 µM | COc1ccc(CN(CCN(C)C)c2ccccn2)cc1 [MEPYRAMINE]
> 46 µM | COc1ccc(O)cc1 [MEQUINOL]
> 46 µM | O=[S+]([O-])(O)CCS [MESNA]
> 46 µM | CN1CCCCC1CCN1c2ccccc2Sc2ccc(S(C)=O)cc21 (stereo unspecified) [MESORIDAZINE]
> 46 µM | C#C[C@]1(O)CC[C@H]2[C@@H]3CCc4cc(OC)ccc4[C@H]3CC[C@@]21C [MESTRANOL]
> 46 µM | CC(=O)Nc1cccc(O)c1 [METACETAMOL]
> 46 µM | C=NC(C(=O)NC1C(=O)N2C1SC(C)(C)C2C(=O)[O-])c1ccccc1.[Na+] (stereo unspecified) [METAMPICILLIN SODIUM]
> 46 µM | Cc1cc(C)cc(OCC2CNC(=O)O2)c1 (stereo unspecified) [METAXALONE]
> 46 µM | CN(C)CCN(Cc1cccs1)c1ccccn1.Cl [METHAPYRILENE HYDROCHLORIDE]
> 46 µM | COc1cccc(OC)c1C(=O)NC1C(=O)N2C1SC(C)(C)C2C(=O)[O-].[Na+] (stereo unspecified) [METHICILLIN SODIUM]

IC50 of cell viability | Compound
> 46 µM | CSCCC(N)C(=O)O (stereo unspecified) [METHIONINE]
> 46 µM | CSc1ccc2c(c1)C(N1CCN(C)CC1)Cc1ccccc1S2 (stereo unspecified) [METHIOTHEPIN]
> 46 µM | COc1ccc(CCN(C)CCCC(C#N)(c2cc(OC)c(OC)c(OC)c2)C(C)C)cc1OC (stereo unspecified) [METHOXY VERAPAMIL]
> 46 µM | COC(F)(F)C(Cl)Cl [METHOXYFLURANE]
> 46 µM | CN1C(CCl)Nc2cc(Cl)c([S+](N)(=O)[O-])cc2[S+]1(=O)[O-] (stereo unspecified) [METHYCLOTHIAZIDE]
> 46 µM | COC(=O)CCC(=O)CN [METHYL AMINOLEVULINATE HYDROCHLORIDE]
> 46 µM | COC(=O)c1cccnc1 [METHYL NICOTINATE]
> 46 µM | C=CCCCCCCCCC(=O)OC [METHYL UNDECENOATE]
> 46 µM | C[S+](C)CC[C@H](N)C(=O)O [METHYLMETHIONINE SULFONIUM CHLORIDE]
> 46 µM | C\C1=C\C(=O)NC(=S)N1 [METHYLTHIOURACIL]
> 46 µM | CN1C(=O)/C(=N\NC(N)=S)c2ccccc21 [METISAZONUM]
> 46 µM | CCN(CC)CCNC(=O)c1cc(Cl)c(N)cc1OC [METOCLOPRAMIDE]
> 46 µM | COc1ccc2cc1Oc1cc3c(cc1OC)CC[N+](C)(C)C3Cc1ccc(cc1)Oc1c(OC)c(OC)cc3c1C(C2)[N+](C)(C)CC3 (stereo unspecified) [METOCURINE IODIDE]
> 46 µM | COC(=O)C1C2CC3c4[nH]c5cc(OC)ccc5c4CCN3CC2CC(OC)C1OC (stereo unspecified) [METOSERPATE HYDROCHLORIDE]
> 46 µM | Cc1ncc([N+](=O)[O-])n1CCO [METRONIDAZOLE]
> 46 µM | CC1(C)S[C@@H]2[C@H](NC(=O)[C@H](NC(=O)N3CCN([S+](C)(=O)[O-])C3=O)c3ccccc3)C(=O)N2[C@H]1C(=O)O [MEZLOCILLIN SODIUM MONOHYDRATE]
> 46 µM | CC[N+](CC)(CC)CCOc1ccc(/C=C/c2ccccc2)cc1 [MG 624]
> 46 µM | CN1CCN2c3ccccc3Cc3ccccc3C2C1 (stereo unspecified) [MIANSERIN]

Compound | IC50 of cell viability
CC(C)(C)NC[C@H](O)c1ccc(O)cc1Cl [MELUADRINE TARTRATE] | > 46 µM
CNc1ccc(C(=O)CC(O)CCC(C)C2OC(=O)CC(O)CC(=O)CC(O)CC(O)CC(O)CC(O)CC3(O)CC(O)C(C(=O)OC)C(CC(O[C@@H]4OC(C)C(O)C(N)C4O)/C=C/C=C/C=C/C=C/C=C/C=C/C=C/C2C)O3)cc1 (stereo partly specified) [MEPARTRICIN] | > 46 µM
CN1C[C@@H](NS(=O)(=O)N(C)C)C[C@@H]2c3cccc4c3c(cn4C)C[C@H]21 [MESULERGINE] | > 46 µM
CCCCCCC(=O)O[C@H]1CC[C@H]2[C@@H]3CCC4CC(=O)\C=C(C)/[C@]4(C)[C@H]3CC[C@]12C (stereo partly specified) [METENOLONE ENANTHATE] | > 46 µM
C=C1Nc2ccccc2C(=O)N1c1ccccc1C [METHAQUALONE] | > 46 µM
CCC1(CC)C(=O)NC(=O)N(C)C1=O [METHARBITAL] | > 46 µM
COc1ccc(OC)c(C(O)C(C)N)c1.Cl (stereo unspecified) [METHOXAMINE HYDROCHLORIDE] | > 46 µM
CC[N+](C)(CC)CCOC(=O)C(O)(c1ccccc1)c1ccccc1 [METHYLBENACTYZIUM BROMIDE] | > 46 µM
Cn1sc(Cl)cc1=O [METHYLCHLOROISOTHIAZOLINONE] | > 46 µM
CC[C@@H](CO)NC(=O)[C@H]/1CN(C)[C@@H]2CC3=C[NH]C4=C3C(=CC=C4)\C2=C1 [METHYLERGOMETRINE] | > 46 µM
C[C@]1(O)CC[C@H]2[C@@H]3CCC/4=C/C(=O)CC[C@]4(C)[C@H]3CC[C@]12C [METHYLTESTOSTERONE] | > 46 µM
CC[C@@H](CO)NC(=O)[C@H]\1CN(C)[C@@H]2CC3=C[N](C)C4=CC=CC(=C34)/C2=C1 [METHYSERGIDE] | > 46 µM
CO[C@H]1[C@@H](O)CC(O[C@@H]1C)OC2[C@@H](O)CC(O[C@@H]2C)OC3[C@@H](O)C[C@@H](O[C@@H]3C)OC4CC[C@@]5(C)C(CCC6C5CC(O)[C@]7(C)[C@@H](CCC67O)C/8=C/C(=O)OC8)C4 (stereo partly specified) [METILDIGOXIN] | > 46 µM
C[N+](C)(C)CCOC(=O)C(O)(c1ccccc1)c1ccccc1 [METOCINII IODIDUM] | > 46 µM
COC(=O)c1cncn1C(C)c1ccccc1 (stereo unspecified) [METOMIDATE HYDROCHLORIDE] | > 46 µM
